The results in this text go back to patent publication US4895589A, “Heterocyclic compounds” (Imperial Chemical Industries PLC, priority 1985, dated 1990).

Data set [1] has as its system Vines. As to conditions: VN, 4000 ppm, 2-3 weeks.
The subject of data set [2] is Soya. As to conditions: SY, 4000 ppm, 2-3 weeks.
Data set [3] deals with Dacrylis glomerata. As to conditions: DA, 4000 ppm, 2-3 weeks.
Data set [4] has as its system Lettuce. As to conditions: LT, 4000 ppm, 2-3 weeks.
Method: (§5) The compounds were tested for plant growth regulator activity against up to tweleve plant species for various growth effects relevant to plant growth regulation.
(§6) After spray, the plants were grown in a glasshouse with 25° C. day/22° C. night temperatures and supplementary lighting was supplied when necessary (from mercury vapour lamps), to provide a 16 hour photoperiod. The exception to this were the temperate cereals, wheat and barley, which were grown in 16° C. day 13° C. night temperatures
(§7) After 2-3 weeks in the glasshouse, depending on the time of year, the plants were visually assessed for morphological characteristics. Formulations blanks were used as controls to assess the Plants.
Data set [5] relates to Tomato. As to conditions: TO, 4000 ppm, 2-3 weeks.
Method: as §5, §6, §7
For data set [6], the system named is Maize. As to conditions: MZ, 4000 ppm, 2-3 weeks.
Method: as §5, §6, §7
Data set [7] relates to Wheat. As to conditions: WW, 4000 ppm, 2-3 weeks.
Method: as §5, §6, §7
The subject of data set [8] is Apples. Briefly: Intermediate Retardant Test, apples. Type of data set: in vivo, Apples (Red Delicious). As to conditions: 672 h, ~28 days, Table IX, read-out: Percentage Reduction in Height of Apples (Compared to formulation blank). The protocol: (§1) Three species are involved in this test RICE, SPRING-BARLEY and APPLES. The variety and growth stages at spray are outlined in Table VI. Compounds were applied at 1000 ppm and 4000 ppm respectively (1 kg and 4 kg ha^-1 at a field volume of 1000 l/ha^-1) as an overall spray. This gives a foliar and root component in the test, i.e. this test will detect the activity of both root and foliar acting compounds. The rice was grown in 4" `paddy` pots, i.e. the roots and bottom of the stems are immersed in water under conditions corresponding to those in paddy fields. Spring barley and apples were grown in 4" pots. The plants were assessed for height to top-most ligule at approximately 28 days after treatment for spring barley and rice and for height to apex at approximately 28 days after the treatment for apples. In each case the result for the 1000 ppm and 4000 ppm test for each compound is compared to the height of the formulation blank in that test, presented as a percentage reduction in height compared to the formulation blank.
as §1, with “in Table XIV. Compounds were” for “in Table VI. Compounds were”, “that test, and presented as” for “that test, presented as”

Data set [9] relates to Spring Barley. The data set can be described thus: Intermediate Retardant Test, spring barley. Type of data set: in vivo, Spring Barley (Atem/kym). As to conditions: Hordeum vulgare, 672 h, ~28 days, Table VIII, read-out: Percentage Reduction in Height of Spring Barley (Compared to formulation blank). The protocol:
as §1
as §1, with “in Table XIV. Compounds were” for “in Table VI. Compounds were”, “that test, and presented as” for “that test, presented as”

Data set [10] deals with Rice. Briefly: Intermediate Retardant Test, rice. Type of data set: in vivo, Rice (Ishikari). As to conditions: Oryza sativa, 672 h, ~28 days, Table VII, read-out: Percentage Reduction in Height of Rice (Compared to formulation blank). The method, then:
as §1
as §1, with “in Table XIV. Compounds were” for “in Table VI. Compounds were”, “that test, and presented as” for “that test, presented as”

In data set [11] the test system is Agrostis tenius. As to conditions: AT, 4000 ppm, 2-3 weeks.
Method: as §5, §6, §7
Data set [12] concerns Cynosurus cristatus. As to conditions: CC, 4000 ppm, 2-3 weeks.
Method: as §5, §6, §7
The test system of data set [13] is plant species of Whole Plant Screen (1) or (2). Briefly: Across screen comparison: total retardation relative to paclobutrazol (Whole Plant Screens (1) and (2)). As to conditions: compounds of Table I, Table X. Type of data set: in vivo. The source says:
The following Example is a general indicative comparison of compounds from EP No. 0052424 with compounds from the preferred class in the present invention. The compounds have not been side-by-side tested on this Example because of the large numbers involved but the retardant activity can be compared using a standard which has been on each test.
The compounds which are compared in this Example have been tested on one of two tests. These are the Whole Plant Screen (1) and Whole Plant Screen (2) the methods for which are described in Examples 17 and 18 respectively.
An across screen comparison between compounds is made by expressing the total retardation (ie. sum of retardation scores recorded for each species tested) caused by the compound as a percentage of the total retardation caused by the standard in that test. The standard chemical gives a measure of the performance of the test and environmental factors. By expressing the test compound activity as a percentage of the standard compound activity these factors can be eliminated . The same standard has been used in every test and this is paclobutrazol a proprietory growth regulator.

Data set [14] deals with Barley. As to conditions: BR, 4000 ppm, 2-3 weeks.
Method: as §5, §6, §7
Data set [15] relates to Wheat. Briefly: Whole Plant Screen (2), wheat. It counts as in vivo, Wheat (Timmo). As to conditions: WW, 4000 ppm, 2-6 weeks, Table V. The method, then:
Compound numbers 12-13, 16-17 and 19-20 were tested on an alternative whole plant screen (2). The compounds were tested for plant growth regulator activity against five species for various growth effects relevant to plant growth regulation.
The plant species used in this screen are presented in Table IV with the leaf stage at which they were sprayed. Each chemical was applied at 4000 ppm (4 kg/ha in a 1000 l/ha field volume) using a tracksprayer and a SS8004E (Teejet) nozzle. […]
After 2-6 weeks in the glasshouse, depending on the time of year, the plants were visually assessed for morphological characteristics. Formulation blanks were used as controls to assess the plants. […]

Data set [16] relates to Rice. The data set can be described thus: Whole Plant Screen (2), rice. It counts as in vivo, Rice (Ishikari). As to conditions: RC, 4000 ppm, 2-6 weeks, Table V. The method, then: (§2) After 2-6 weeks in the glasshouse, depending on the time of year, the plants were visually assessed for morphological characteristics. Formulation blanks were used as controls to assess the plants.
(§3) Compound numbers 1, 5 and 7 (of the present invention) were tested against compounds A, B, C and D (compound Nos. 12, 2, 24 and 50 of Table 1 EP No. 0052424) on whole plant screen (2). The compounds were tested of plant growth regulator activity against five species and for various growth effects relevant to plant growth regulation. The structures are set out in FIG. 1.
(§4) The plant species used in this screen are presented in Table XII with the leaf stage at which they were sprayed Each chemical was applied at 4000 ppm (4 kg/ha in a 1000 l/ha field volume) using a tracksprayer and a SS8004E (Teejet) nozzle. […]

Data set [17] deals with Barley. The data set can be described thus: Whole Plant Screen (2), barley. It counts as in vivo, Barley (Atem). As to conditions: BR, 4000 ppm, 2-6 weeks, Table V. The method, then: as §3, §4
In data set [18] the test system is Apple. Briefly: Whole Plant Screen (2), apple. Type of data set: in vivo, Apple (Red Delicious). As to conditions: Ap, 4000 ppm, 2-6 weeks, Table V. The protocol: as §2, §3, §4

Consider `CCCCCCC#CC(O)(Cn1cncn1)C(C)(C)C` (stereo not drawn) [Compound 4, 2,2-dimethyl-3-hydroxy-3-(oct-1-yne-1-yl)-4-(1,2,4-triazol-1-yl)-butane], for which the “Retardation score (1-3) with greening (G), apical damage (A), tillering/side shooting (T)” value (shortened to “Retardation score … tillering/side shooting (T)”) is recorded as 1G in data set [1]; 1G in data set [2]; 1 (10-30% retardation) in data set [3]; 2 (21-60% retardation) in [4]; 2G in data set [5]; 1G in [6]. Besides, the “Retardation score … tillering/side shooting (T)” value in data set [7] was 1GT. For the same molecule, in data set [8], the percent reduction in plant height vs formulation blank at 1000 ppm is 8.2%. Moreover, in data set [8], the percent reduction in plant height vs formulation blank at 4000 ppm was determined as 21%. In data set [9], the height reduction vs blank at 1000 ppm was 23.7%. The height reduction vs blank at 4000 ppm in data set [9] is 27.5%. Besides, the Percent reduction in rice plant height vs formulation blank at 4000 ppm in data set [10] came to 5.8%.
Take `CCCC(C)C#CC(O)(Cn1cncn1)C(C)(C)C` (stereo not drawn) [Compound 9, 2,2-dimethyl-3-hydroxy-3-(3-methyl-hex-1-yne-1-yl)-4-(1,2,4-triazol-1-yl)-butane]: the “Retardation score … tillering/side shooting (T)” value is on record as 2GT in data set [1]; 2GAT in data set [2]; 1 (10-30% retardation) in data set [11]; 2 (21-60% retardation) in data set [12]; 2 (21-60% retardation) in data set [3]; 1 (10-30% retardation) in data set [4]. Moreover, the “Retardation score … tillering/side shooting (T)” value in data set [5] was 2G; in [14], 1 (10-30% retardation); in [7] it was 2GT. Besides, the “Total Retardation expressed as a percentage of the total retardation caused by paclobutrazol” value in data set [13] is on record as 73.9 % of paclobutrazol. Besides, the percent reduction in plant height vs formulation blank at 4000 ppm in [8] was determined as 10.8%. In addition, in data set [9], the height reduction vs blank at 1000 ppm is 15.7%. In [9], the height reduction vs blank at 4000 ppm is 32.9%. For the same molecule, in data set [10], the Percent reduction in rice plant height vs formulation blank at 1000 ppm was 8.2%. The Percent reduction in rice plant height vs formulation blank at 4000 ppm in data set [10] came out at 32%.
For the molecule `CC(C)(C)C(O)(C#CCC1CC1)Cn1cncn1` (stereo not drawn) [Compound 16, 2,2-Dimethyl-3-hydroxy-3-(3-cyclopropyl-prop-1-yne-lyl)-4-(1,2,4-triazol-1-yl)-butane], in data set [15], the “T = Tillering or side shooting” value was 1 (10-30%). Also, in [16], the “G = Greening effect” value is on record as 2 (31-60%), the “I = Interligular or internodal length reduction” value was 3 (61-100%), the “R = Retardation” value is 3 (61-100%) and the “T = Tillering or side shooting” value is recorded as 1 (10-30%). Further, the “Total Retardation expressed as a percentage of the total retardation caused by paclobutrazol” value in data set [13] is 100.0 % of paclobutrazol. For the same molecule, in [17], the “G = Greening effect” value is listed as 1 (10-30%) and the “I = Interligular or internodal length reduction” value is on record as 3 (61-100%). In addition, in data set [18], the “A = Apical damage” value is listed as 2 (31-60%), the “G = Greening effect” value was 2 (31-60%) and the “T = Tillering or side shooting” value is reported as 2 (31-60%). In data set [8], the percent reduction in plant height vs formulation blank at 1000 ppm is 31.8% and the percent reduction in plant height vs formulation blank at 4000 ppm amounted to 62.8%. In data set [9], the height reduction vs blank at 1000 ppm came out at 11% and the height reduction vs blank at 4000 ppm stood at 24%. In data set [10], the Percent reduction in rice plant height vs formulation blank at 1000 ppm is 14% and the Percent reduction in rice plant height vs formulation blank at 4000 ppm amounted to 34%.
Take `CCCCC#CC(O)(Cn1cncn1)C(C)(C)CF` (stereo not drawn) [Compound 17, 2,2-dimethyl-1-fluoro-3-hydroxy-3-(hex-1-yne-1-yl)-4-(1,2,4-triazole-1-yl)-butane]: in data set [15], the “G = Greening effect” value was 1 (10-30%) and the “T = Tillering or side shooting” value was 1 (10-30%). Besides, the “Total Retardation expressed as a percentage of the total retardation caused by paclobutrazol” value in [13] was 150.0 % of paclobutrazol. The “I = Interligular or internodal length reduction” value in data set [17] is given as 2 (31-60%). Moreover, in data set [18], the “A = Apical damage” value is given as 3 (61-100%) and the “T = Tillering or side shooting” value was 2 (31-60%). In addition, in data set [8], the percent reduction in plant height vs formulation blank at 1000 ppm was 9.9% and the percent reduction in plant height vs formulation blank at 4000 ppm worked out at 54.5%. Also, the height reduction vs blank at 4000 ppm in data set [9] turned out to be 24%. In data set [10], the Percent reduction in rice plant height vs formulation blank at 4000 ppm worked out at 22%.
